Measurements as given in ChEMBL document CHEMBL5465560, “Selectivity Literature for EUbOPEN Chemogenomic Library” (2024).
Values belong to the compound of their own block, whether it stands above or below them.

What was measured:
[1] = target: T1, Uncharacterized serine/threonine-protein kinase SBK3 (Homo sapiens) (UniProt P0C264); details: at 10 µM
T1 sequence (whole entry): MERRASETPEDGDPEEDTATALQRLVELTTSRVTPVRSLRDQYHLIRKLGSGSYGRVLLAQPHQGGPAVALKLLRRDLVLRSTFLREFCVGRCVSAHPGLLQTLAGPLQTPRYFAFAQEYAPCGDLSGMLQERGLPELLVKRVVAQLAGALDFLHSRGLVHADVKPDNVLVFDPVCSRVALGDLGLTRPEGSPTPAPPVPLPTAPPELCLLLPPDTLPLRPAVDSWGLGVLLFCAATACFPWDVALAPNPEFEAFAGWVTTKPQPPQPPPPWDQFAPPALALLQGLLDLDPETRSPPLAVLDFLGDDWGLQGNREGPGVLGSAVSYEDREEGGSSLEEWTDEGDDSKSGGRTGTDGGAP

[2] = target: Histone-lysine N-methyltransferase ASH1L (Homo sapiens) (UniProt Q9NR48); details: at 10 µM
[3] = target: Nuclear receptor subfamily 1 group I member 2 (Homo sapiens, UniProt O75469); experiment: Selectivity interaction (PXR Receptor agonist/antagonist assay: TR-FRET human recombinant ) EUB0000877a NR1I2
Chain of Nuclear receptor subfamily 1 group I member 2 (O75469 whole entry): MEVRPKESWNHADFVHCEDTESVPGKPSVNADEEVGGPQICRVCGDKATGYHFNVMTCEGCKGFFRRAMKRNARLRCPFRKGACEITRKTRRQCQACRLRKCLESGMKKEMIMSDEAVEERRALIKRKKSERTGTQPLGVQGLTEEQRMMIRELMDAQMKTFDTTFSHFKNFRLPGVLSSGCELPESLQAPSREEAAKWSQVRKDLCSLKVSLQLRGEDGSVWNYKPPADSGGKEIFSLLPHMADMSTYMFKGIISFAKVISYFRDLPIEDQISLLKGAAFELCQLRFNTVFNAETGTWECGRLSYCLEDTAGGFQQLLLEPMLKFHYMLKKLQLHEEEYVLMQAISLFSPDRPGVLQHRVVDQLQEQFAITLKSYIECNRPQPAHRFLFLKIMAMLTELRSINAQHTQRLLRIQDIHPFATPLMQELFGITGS

[4] = target: Cyclin-dependent kinase 2 (Homo sapiens, UniProt P24941); experiment: Selectivity interaction (Kinase panel (literature)) EUB0001199aCl CDK2; details: at 1 µM
[5] = target: T2, Mitogen-activated protein kinase kinase kinase kinase 3 (Homo sapiens) (UniProt Q8IVH8); details: at 10 µM
T2 sequence (whole entry): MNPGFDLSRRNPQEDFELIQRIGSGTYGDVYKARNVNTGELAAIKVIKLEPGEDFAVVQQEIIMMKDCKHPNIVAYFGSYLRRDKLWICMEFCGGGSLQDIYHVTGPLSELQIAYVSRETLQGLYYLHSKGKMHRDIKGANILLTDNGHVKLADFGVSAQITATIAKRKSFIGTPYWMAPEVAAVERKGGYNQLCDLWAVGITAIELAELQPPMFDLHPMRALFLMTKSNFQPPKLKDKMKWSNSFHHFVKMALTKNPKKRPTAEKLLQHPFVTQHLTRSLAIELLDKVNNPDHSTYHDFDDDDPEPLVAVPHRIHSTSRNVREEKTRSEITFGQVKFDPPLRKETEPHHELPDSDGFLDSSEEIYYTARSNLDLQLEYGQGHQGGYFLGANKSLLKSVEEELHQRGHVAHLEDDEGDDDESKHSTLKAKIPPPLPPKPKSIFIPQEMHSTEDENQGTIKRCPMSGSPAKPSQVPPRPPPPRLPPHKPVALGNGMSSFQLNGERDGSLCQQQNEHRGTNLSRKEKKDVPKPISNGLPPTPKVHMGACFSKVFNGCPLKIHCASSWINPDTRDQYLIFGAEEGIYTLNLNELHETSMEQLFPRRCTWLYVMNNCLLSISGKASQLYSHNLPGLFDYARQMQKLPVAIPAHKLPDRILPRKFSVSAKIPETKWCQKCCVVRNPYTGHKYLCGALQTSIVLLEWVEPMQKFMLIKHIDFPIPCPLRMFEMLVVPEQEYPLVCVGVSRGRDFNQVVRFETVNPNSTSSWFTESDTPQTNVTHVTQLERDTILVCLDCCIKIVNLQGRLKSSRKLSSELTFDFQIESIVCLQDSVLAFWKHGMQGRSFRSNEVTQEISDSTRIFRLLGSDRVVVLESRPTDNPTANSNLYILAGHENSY

D(3) dopamine receptor = D(3) dopamine receptor (Homo sapiens, UniProt P35462); experiment: Selectivity interaction (GPCR panel (PDSP screen)) EUB0001079a DRD3; details: at 10 µM
Chain of D(3) dopamine receptor (P35462 whole entry): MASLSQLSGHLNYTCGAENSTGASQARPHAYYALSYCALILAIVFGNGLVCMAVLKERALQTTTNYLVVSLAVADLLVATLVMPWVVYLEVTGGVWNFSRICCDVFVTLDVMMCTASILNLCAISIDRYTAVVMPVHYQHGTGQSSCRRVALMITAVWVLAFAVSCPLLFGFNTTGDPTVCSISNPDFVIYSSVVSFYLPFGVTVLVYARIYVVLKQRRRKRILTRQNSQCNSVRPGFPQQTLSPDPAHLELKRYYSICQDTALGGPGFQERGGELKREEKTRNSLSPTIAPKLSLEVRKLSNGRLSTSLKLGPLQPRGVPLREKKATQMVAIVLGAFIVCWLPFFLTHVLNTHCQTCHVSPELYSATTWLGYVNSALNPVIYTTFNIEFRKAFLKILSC

[6] = target: T3, Serine/threonine-protein kinase ULK3 (Homo sapiens) (UniProt Q6PHR2); experiment: Selectivity interaction (KinomeScan (DiscoverX)) EUB0000655a ULK3; details: at 10 µM
T3 sequence (whole entry): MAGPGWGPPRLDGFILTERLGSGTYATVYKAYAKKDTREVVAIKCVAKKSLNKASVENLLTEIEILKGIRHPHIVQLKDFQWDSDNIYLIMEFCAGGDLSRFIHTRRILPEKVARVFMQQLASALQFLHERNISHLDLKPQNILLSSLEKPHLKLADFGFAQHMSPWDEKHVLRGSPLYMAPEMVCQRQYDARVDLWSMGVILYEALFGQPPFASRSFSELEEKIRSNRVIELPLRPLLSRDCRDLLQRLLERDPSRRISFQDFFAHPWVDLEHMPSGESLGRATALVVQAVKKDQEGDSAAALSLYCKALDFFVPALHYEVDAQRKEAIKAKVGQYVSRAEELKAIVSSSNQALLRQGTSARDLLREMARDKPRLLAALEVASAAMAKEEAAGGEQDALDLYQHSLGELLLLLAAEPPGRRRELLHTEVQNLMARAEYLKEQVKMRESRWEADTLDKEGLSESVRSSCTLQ

[7] = target: Leukocyte tyrosine kinase receptor (Homo sapiens, UniProt P29376); experiment: Selectivity interaction (KinomeScan (DiscoverX)) EUB0001619a LTK; details: at 1 µM
Chain of Leukocyte tyrosine kinase receptor (P29376 whole entry): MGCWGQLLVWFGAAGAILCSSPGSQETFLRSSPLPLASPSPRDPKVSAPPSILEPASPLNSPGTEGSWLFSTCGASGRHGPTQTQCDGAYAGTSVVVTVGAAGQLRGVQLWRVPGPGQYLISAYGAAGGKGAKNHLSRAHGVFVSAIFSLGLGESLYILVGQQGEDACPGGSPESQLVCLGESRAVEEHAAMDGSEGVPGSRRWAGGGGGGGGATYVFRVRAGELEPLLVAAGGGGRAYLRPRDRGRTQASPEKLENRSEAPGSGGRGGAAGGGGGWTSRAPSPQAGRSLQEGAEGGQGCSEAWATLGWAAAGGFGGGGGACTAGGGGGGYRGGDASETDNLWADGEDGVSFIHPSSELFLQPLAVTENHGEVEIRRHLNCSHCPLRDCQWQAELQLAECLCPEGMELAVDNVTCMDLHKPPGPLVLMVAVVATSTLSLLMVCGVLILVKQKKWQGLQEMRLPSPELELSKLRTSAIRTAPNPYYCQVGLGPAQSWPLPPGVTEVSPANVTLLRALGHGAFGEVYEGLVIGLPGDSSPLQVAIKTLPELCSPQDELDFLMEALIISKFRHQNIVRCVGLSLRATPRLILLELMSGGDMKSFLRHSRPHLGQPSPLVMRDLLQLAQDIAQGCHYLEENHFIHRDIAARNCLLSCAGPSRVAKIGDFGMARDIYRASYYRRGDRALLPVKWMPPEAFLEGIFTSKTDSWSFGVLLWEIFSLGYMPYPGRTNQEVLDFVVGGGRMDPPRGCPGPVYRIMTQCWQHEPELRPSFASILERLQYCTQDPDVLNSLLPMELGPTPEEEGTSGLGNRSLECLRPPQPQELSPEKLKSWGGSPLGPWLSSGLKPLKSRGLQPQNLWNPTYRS

[8] = target: 5'-AMP-activated protein kinase catalytic subunit alpha-1 (Homo sapiens, UniProt Q13131); experiment: Selectivity interaction (ActivX KiNativ screen (ex vivo kinase selectivity in human PBMCs)) EUB0001619a PRKAA1; format: cell-based; details: PBMC, at 1 µM
Chain of 5'-AMP-activated protein kinase catalytic subunit alpha-1 (Q13131 whole entry, looked up): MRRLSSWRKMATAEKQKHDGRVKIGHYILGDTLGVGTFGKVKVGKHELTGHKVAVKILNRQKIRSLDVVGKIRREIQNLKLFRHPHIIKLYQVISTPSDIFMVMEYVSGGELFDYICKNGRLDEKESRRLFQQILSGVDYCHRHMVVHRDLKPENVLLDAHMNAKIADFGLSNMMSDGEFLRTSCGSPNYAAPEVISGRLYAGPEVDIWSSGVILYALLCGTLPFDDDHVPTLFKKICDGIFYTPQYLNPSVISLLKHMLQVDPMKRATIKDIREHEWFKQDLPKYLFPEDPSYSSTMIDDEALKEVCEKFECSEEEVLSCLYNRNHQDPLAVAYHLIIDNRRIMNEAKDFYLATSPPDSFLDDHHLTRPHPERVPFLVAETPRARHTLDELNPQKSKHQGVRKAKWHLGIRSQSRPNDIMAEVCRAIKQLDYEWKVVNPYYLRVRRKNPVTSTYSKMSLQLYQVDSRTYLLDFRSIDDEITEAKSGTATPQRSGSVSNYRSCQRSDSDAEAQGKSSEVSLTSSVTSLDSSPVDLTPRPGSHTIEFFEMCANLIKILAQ

[9] = target: TGF-beta receptor type-2 (Homo sapiens) (UniProt P37173); experiment: Selectivity interaction (KinomeScan (DiscoverX)) EUB0000618a TGFBR2; details: at 10 µM
Chain of TGF-beta receptor type-2 (Homo sapiens) (P37173 whole entry): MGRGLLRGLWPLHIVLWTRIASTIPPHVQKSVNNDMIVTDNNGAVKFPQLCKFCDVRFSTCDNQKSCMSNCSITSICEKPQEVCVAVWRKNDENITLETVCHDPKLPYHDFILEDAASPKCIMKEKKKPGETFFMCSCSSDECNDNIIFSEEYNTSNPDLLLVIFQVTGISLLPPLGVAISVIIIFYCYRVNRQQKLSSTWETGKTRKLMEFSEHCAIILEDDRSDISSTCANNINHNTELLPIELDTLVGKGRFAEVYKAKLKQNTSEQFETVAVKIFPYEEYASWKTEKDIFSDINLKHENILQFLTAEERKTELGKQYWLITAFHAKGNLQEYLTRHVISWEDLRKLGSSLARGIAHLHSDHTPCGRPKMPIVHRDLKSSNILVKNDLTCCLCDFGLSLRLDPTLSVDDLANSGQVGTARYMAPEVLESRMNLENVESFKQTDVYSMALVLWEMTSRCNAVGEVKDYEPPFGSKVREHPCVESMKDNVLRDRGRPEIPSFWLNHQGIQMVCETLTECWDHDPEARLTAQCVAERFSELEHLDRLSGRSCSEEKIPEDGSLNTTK

[10] = target: Proto-oncogene tyrosine-protein kinase Src (Homo sapiens, UniProt P12931); experiment: Selectivity interaction (Kinase panel (DSF assay)) EUB0001559a SRC
Chain of Proto-oncogene tyrosine-protein kinase Src (P12931 2-536 limits assumed): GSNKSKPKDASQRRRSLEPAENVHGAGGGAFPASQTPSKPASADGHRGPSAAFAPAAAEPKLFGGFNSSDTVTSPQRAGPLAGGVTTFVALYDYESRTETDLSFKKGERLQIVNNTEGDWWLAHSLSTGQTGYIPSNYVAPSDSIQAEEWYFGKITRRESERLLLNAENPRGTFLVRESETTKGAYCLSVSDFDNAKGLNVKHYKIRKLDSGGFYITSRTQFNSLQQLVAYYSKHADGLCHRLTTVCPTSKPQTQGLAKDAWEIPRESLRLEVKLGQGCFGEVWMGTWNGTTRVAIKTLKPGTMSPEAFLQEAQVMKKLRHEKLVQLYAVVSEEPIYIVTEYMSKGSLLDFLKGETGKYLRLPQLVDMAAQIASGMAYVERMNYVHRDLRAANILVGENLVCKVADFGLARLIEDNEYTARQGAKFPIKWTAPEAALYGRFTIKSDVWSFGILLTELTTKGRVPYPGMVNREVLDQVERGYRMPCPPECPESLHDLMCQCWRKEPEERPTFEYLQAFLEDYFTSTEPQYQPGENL

SMILES: Cc1cc([C@@H](C)Nc2ccccc2C(=O)O)c2nc(N3CCOCC3)cc(=O)n2c1 [AZD-6482]
% of control [1]: 100%

SMILES: CCN(CC)CCCCNc1ncc2cc(-c3cc(OC)cc(OC)c3)c(NC(=O)NC(C)(C)C)nc2n1
% of control [5]: 100%

SMILES: Nc1cnc(N2CCc3cc(S(=O)(=O)Nc4c(F)cc(Cl)cc4F)cc(N4CCCC4=O)c32)nc1 [TP-020n]
% of inhibition (D(3) dopamine receptor): -5.02%

SMILES: CN(C)CCOc1ccc(-c2nc(-c3ccncc3)c(-c3ccc4c(c3)CC/C4=N\O)[nH]2)cc1
% of control [6]: 88%

SMILES: N#Cc1cccc(-c2c[nH]c3ncnc(N4CCOCC4)c23)c1
% of control [7]: 100%
% of inhibition [8]: 16%

SMILES: O[C@H]1CC[C@H](Nc2ncc3nc(Nc4c(F)cc(F)cc4F)n([C@H]4CCOC4)c3n2)CC1
% of control [9]: 71%

Second part, the compound after the results:

% activity [2]: > 90%
SMILES: CNCCN1CCC(c2cc(CN(C)C(=O)c3cccc(Oc4ccccc4)c3)ccn2)CC1

IC50 [3]: > 30 µM
SMILES: CCC(=O)N1CC[C@H](Nc2ncnc3c2CN(c2cnc(OC)c(C(F)(F)F)c2)CC3)C1 [LENIOLISIB]

% of inhibition [4]: 4%
SMILES: CN1Cc2nccc(-c3cn(C)nc3-c3ccc(F)cc3)c2C1=O

dTM [10]: -0.3 K
SMILES: CN(C(=O)c1cnn2cccnc12)c1cc2c(cc1N1CCOCC1)C(=O)N(C[C@@H](F)C(C)(C)O)C2
